{"source": "patent US20250170104A1", "about": "“INHIBITORS OF PSEUDOMONAS AERUGINOSA VIRULENCE FACTOR Lasß” (priority 2022, published 2025)", "data": [{"target": "LasB (Pseudomonas aeruginosa (strain ATCC 15692 / DSM 22644 / CIP 104116 / JCM 14847 / LMG 12228 / 1C / PRS 101 / PAO1), UniProt P14756)", "sequence (P14756 198-498)": "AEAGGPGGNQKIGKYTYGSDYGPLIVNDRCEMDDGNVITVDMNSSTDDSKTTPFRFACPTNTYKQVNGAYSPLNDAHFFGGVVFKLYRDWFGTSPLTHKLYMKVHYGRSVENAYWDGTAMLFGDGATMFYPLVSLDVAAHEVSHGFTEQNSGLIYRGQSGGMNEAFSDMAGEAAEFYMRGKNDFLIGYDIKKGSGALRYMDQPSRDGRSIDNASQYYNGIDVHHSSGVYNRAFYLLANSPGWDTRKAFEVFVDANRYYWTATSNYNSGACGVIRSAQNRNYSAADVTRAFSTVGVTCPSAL", "test": "In vitro LasB activity assay (fluorogenic substrate)", "type": "biochemical", "settings": "LasB 0.3 nM, substrate 150 μM, mean ± SD", "protocol": "The LasB activity assay was performed as described previously (Nishino N, Powers J C. Pseudomonas aeruginosa elastase. Development of a new substrate, inhibitors, and an affinity ligand. J Biol Chem. 1980 Apr. 25; 255(8):3482-6) using the fluorogenic substrate 2-Aminobenzoyl-L-Alanyl-Glycyl-L-Leucyl-L-Alanyl-para-Nitro-Benzyl-Amide, purchased from Peptides International (Louisville, KY, USA) and vivitide, LLC (Gardner, MA, USA).\nFluorescence intensity was measured for 60 min at 37° C. in black 384-well microtiter plates (Greiner BioOne, Kremsmünster, Austria) using a CLARIOstar microplate reader (BMG Labtech, Ortenberg, Germany) with an excitation wavelength of […] and an emission wavelength of 415±20 nm. The assay was performed in a final volume of 50 μL of assay buffer (50 mM Tris, pH 7.2, 2.5 mM CaCl2), 0.075% Pluronic F-127, 5% DMSO) containing LasB at a final concentration of […] 0.3 nM and the substrate at 150 μM. Before substrate addition, compounds were preincubated with the enzyme at 37° C. for 15 min. Experiments were performed in duplicates and repeated for at least two times. Blank controls without enzyme were performed. After blank subtraction, the slope of samples containing inhibitors (v) was divided by the slope of a simultaneously started uninhibited enzymatic reaction (v0). IC50 values were determined with nonlinear regression using GraphPad Prism 5 (Graph Pad Software, San Diego, CA, USA) and are given as mean values ±standard deviation (SD). The slope factor was constrained to 1.", "units": {"IC50": "nM"}, "values": [{"smiles": "CC(C)CC(C(=O)NO)C(=O)Nc1ccc(Cn2cc(CNC(=O)c3ccc(I)cc3)nn2)cc1", "note": "(stereo not shown) [Compound 132, N-[[1-[[4-[[2-(Hydroxycarbamoyl)-4-methyl-pentanoyl]amino]phenyl]methyl]triazol-4-yl]methyl]-4-iodo-benzamide]", "IC50": "22.8 ± 0.1"}, {"smiles": "CC(C)CC(C(=O)NO)C(=O)Nc1ccc(Cn2cc(CNC(=O)OC(C)(C)C)nn2)cc1", "note": "(stereo not shown) [Compound 133, Tert-butyl N-[[1-[[4-[[2-(hydroxycarbamoyl)-4-methyl-pentanoyl]amino]phenyl]methyl]triazol-4-yl]methyl]carbamate]", "IC50": "9.8 ± 0.4"}, {"smiles": "CC(C)CC(C(=O)NO)C(=O)Nc1ccc(Cn2cc(CNc3ccc(I)cc3)nn2)cc1", "note": "(stereo not shown) [Compound 134, 2-(Hydroxycarbamoyl)-N-[4-[[4-[(4-iodoanilino)methyl]triazol-1-yl]methyl]phenyl]-4-methyl-pentanamide]", "IC50": "8.4 ± 0.5"}, {"smiles": "CC(C)CC(C(=O)NO)C(=O)Nc1ccc(Cn2cc(COc3ccc(Cl)cc3)nn2)cc1", "note": "(stereo not shown) [Compound 135, N-[4-[[4-[(4-Chlorophenoxy)methyl]triazol-1-yl]methyl]phenyl]-2-(hydroxycarbamoyl)-4-methyl-pentanamide]", "IC50": "9.8 ± 0.3"}, {"smiles": "CC(C)CC(C(=O)NO)C(=O)Nc1ccc(Cn2cc(Cc3ccc(Cl)cc3)nn2)cc1", "note": "(stereo not shown) [Compound 137, N-[4-[[4-[(4-Chlorophenyl)methyl]triazol-1-yl]methyl]phenyl]-2-(hydroxycarbamoyl)-4-methyl-pentanamide]", "IC50": "16.9 ± 1.3"}, {"smiles": "CC(C)CC(C(=O)NO)C(=O)Nc1ccc(Cn2cc(-c3ccc(I)cc3)nn2)cc1", "note": "(stereo not shown) [Compound 138, 2-(Hydroxycarbamoyl)-N-[4-[[4-(4-iodophenyl)triazol-1-yl]methyl]phenyl]-4-methyl-pentanamide]", "IC50": "37.8 ± 2.9"}, {"smiles": "CC(C)CC(C(=O)NO)C(=O)Nc1ccc(Cn2cc(CN3C(=O)c4ccccc4S3(=O)=O)nn2)cc1", "note": "(stereo not shown) [Compound 139, 2-(Hydroxycarbamoyl)-4-methyl-N-[4-[[4-[(1,1,3-trioxo-1,2-benzothiazol-2-yl)methyl]triazol-1-yl]methyl]phenyl]pentanamide]", "IC50": "19.3 ± 0.6"}, {"smiles": "CC(C)CC(C(=O)NO)C(=O)Nc1ccc(Cn2cc(CN)nn2)cc1", "note": "(stereo not shown) [Compound 140, N-[4-[[4-(Aminomethyl)triazol-1-yl]methyl]phenyl]-2-(hydroxycarbamoyl)-4-methyl-pentanamide]", "IC50": "55.9 ± 2.3"}, {"smiles": "CC(C)CC(C(=O)NO)C(=O)Nc1ccc(Cn2cc(CNS(=O)(=O)c3ccccc3Cl)nn2)cc1", "note": "(stereo not shown) [Compound 163, N-[4-[[4-[[(2-Chlorophenyl)sulfonylamino]methyl]triazol-1-yl]methyl]phenyl]-2-(hydroxycarbamoyl)-4-methyl-pentanamide]", "IC50": "4.3 ± 0.1"}, {"smiles": "CC(C)CC(C(=O)NO)C(=O)Nc1ccc(Cn2cc(CNS(=O)(=O)c3cccc(Cl)c3)nn2)cc1", "note": "(stereo not shown) [Compound 164, N-[4-[[4-[[(3-Chlorophenyl)sulfonylamino]methyl]triazol-1-yl]methyl]phenyl]-2-(hydroxycarbamoyl)-4-methyl-pentanamide]", "IC50": "2.4 ± 0.1"}, {"smiles": "CC(C)CC(C(=O)NO)C(=O)Nc1ccc(Cn2cc(CNS(=O)(=O)Cc3ccc(Cl)cc3)nn2)cc1", "note": "(stereo not shown) [Compound 166, N-[4-[[4-[[(4-Chlorophenyl)methylsulfonylamino]methyl]triazol-1-yl]methyl]phenyl]-2-(hydroxycarbamoyl)-4-methyl-pentanamide]", "IC50": "5.2 ± 0.3"}, {"smiles": "CC(C)CC(C(=O)NO)C(=O)Nc1ccc(Cn2cc(CNS(=O)(=O)c3ccccc3)nn2)cc1", "note": "(stereo not shown) [Compound 167, N-[4-[[4-(Benzenesulfonamidomethyl)triazol-1-yl]methyl]phenyl]-2-(hydroxycarbamoyl)-4-methyl-pentanamide]", "IC50": "5.5 ± 0.3"}, {"smiles": "CC(C)CC(C(=O)NO)C(=O)Nc1ccc(Cn2cc(CNS(=O)(=O)C3CCCCC3)nn2)cc1", "note": "(stereo not shown) [Compound 168, N-[4-[[4-[(Cyclohexylsulfonylamino)methyl]triazol-1-yl]methyl]phenyl]-2-(hydroxycarbamoyl)-4-methyl-pentanamide]", "IC50": "2.7 ± 0.2"}, {"smiles": "O=C(NO)C(Cc1ccccc1)C(=O)Nc1ccc(Cn2cc(CNS(=O)(=O)c3ccc(I)cc3)nn2)cc1", "note": "(stereo not shown) [Compound 179, 2-Benzyl-3-(hydroxyamino)-N-[4-[[4-[[(4-iodophenyl)sulfonylamino]methyl]triazol-1-yl]methyl]phenyl]-3-oxo-propanamide]", "IC50": "1 ± 0.6"}, {"smiles": "O=C(NO)C(CC1CC1)C(=O)Nc1ccc(Cn2cc(CNS(=O)(=O)c3ccc(I)cc3)nn2)cc1", "note": "(stereo not shown) [Compound 183, 2-(Cyclopropylmethyl)-3-(hydroxyamino)-N-[4-[[4-[[(4-iodophenyl)sulfonylamino]methyl]triazol-1-yl]methyl]phenyl]-3-oxo-propanamide]", "IC50": "9.9 ± 0.3"}, {"smiles": "CC(C)CC(C(=O)NO)C(=O)Nc1ccc(Cn2nncc2CNC(=O)OC(C)(C)C)cc1", "note": "(stereo not shown) [Compound 185, tert-butyl N-[[3-[[4-[[2-(hydroxycarbamoyl)-4-methyl-pentanoyl]amino]phenyl]methyl]triazol-4-yl]methyl]carbamate]", "IC50": "6.5 ± 0.2"}, {"smiles": "CC(C)CC(C(=O)NO)C(=O)Nc1ccc(Cn2nncc2CNS(=O)(=O)c2ccc(I)cc2)cc1", "note": "(stereo not shown) [Compound 190, 2-(Hydroxycarbamoyl)-N-[4-[[5-[[(4-iodophenyl)sulfonylamino]methyl]triazol-1-yl]methyl]phenyl]-4-methyl-pentanamide]", "IC50": "7.8 ± 0.1"}, {"smiles": "CC(C)CC(C(=O)NO)C(=O)Nc1ccc(Cn2nncc2CNS(=O)(=O)c2ccc(F)cc2)cc1", "note": "(stereo not shown) [Compound 191, N-[4-[[5-[[(4-Fluorophenyl)sulfonylamino]methyl]triazol-1-yl]methyl]phenyl]-2-(hydroxycarbamoyl)-4-methyl-pentanamide]", "IC50": "7.9 ± 0.1"}, {"smiles": "CC(C)CC(C(=O)NO)C(=O)Nc1ccc(Cn2nncc2CNS(=O)(=O)CC(C)C)cc1", "note": "(stereo not shown) [Compound 192, 2-(Hydroxycarbamoyl)-N-[4-[[5-[(isobutylsulfonylamino)methyl]triazol-1-yl]methyl]phenyl]-4-methyl-pentanamide]", "IC50": "6.8 ± 0.1"}, {"smiles": "CC(=O)c1ccc(S(=O)(=O)NCc2cn(Cc3ccc(NC(=O)C(CC(C)C)C(=O)NO)cc3)nn2)cc1", "note": "(stereo not shown) [Compound 203, N-[4-[[4-[[(4-acetylphenyl)sulfonylamino]methyl]triazol-1-yl]methyl]phenyl]-2-(hydroxycarbamoyl)-4-methyl-pentanamide]", "IC50": "7.9 ± 0.2"}, {"smiles": "COC(=O)c1ccc(S(=O)(=O)NCc2cn(Cc3ccc(NC(=O)C(CC(C)C)C(=O)NO)cc3)nn2)cc1", "note": "(stereo not shown) [Compound 204, methyl 4-[[1-[[4-[[2-(hydroxycarbamoyl)-4-methyl-pentanoyl]amino]phenyl]methyl]triazol-4-yl]methylsulfamoyl]benzoate]", "IC50": "13 ± 0.4"}, {"smiles": "COCCOc1ccc(S(=O)(=O)NCc2cn(Cc3ccc(NC(=O)C(CC(C)C)C(=O)NO)cc3)nn2)cc1", "note": "(stereo not shown) [Compound 205, 2-(hydroxycarbamoyl)-N-[4-[[4-[[[4-(2-methoxyethoxy)phenyl]sulfonylamino]methyl]triazol-1-yl]methyl]phenyl]-4-methyl-pentanamide]", "IC50": "29.5 ± 0.7"}, {"smiles": "CC(C)CC(C(=O)NO)C(=O)Nc1ccc(Cn2cc(CNS(=O)(=O)c3ccc(OC(C)C)cc3)nn2)cc1", "note": "(stereo not shown) [Compound 206, 2-(hydroxycarbamoyl)-N-[4-[[4-[[(4-isopropoxyphenyl)sulfonylamino]methyl]triazol-1-yl]methyl]phenyl]-4-methyl-pentanamide]", "IC50": "7.8 ± 0.3"}, {"smiles": "CC(C)CC(C(=O)NO)C(=O)Nc1ccc(Cn2cc(CNS(=O)(=O)c3ccc(C(C)C)cc3)nn2)cc1", "note": "(stereo not shown) [Compound 207, 2-(hydroxycarbamoyl)-N-[4-[[4-[[(4-isopropylphenyl)sulfonylamino]methyl]triazol-1-yl]methyl]phenyl]-4-methyl-pentanamide]", "IC50": "3.1 ± 0.1"}, {"smiles": "CC(C)CC(C(=O)NO)C(=O)Nc1ccc(Cn2cc(CNS(=O)(=O)c3ccc(NC(=O)OC(C)(C)C)cc3)nn2)cc1", "note": "(stereo not shown) [Compound 208, tert-butyl N-[4-[[1-[[4-[[2-(hydroxycarbamoyl)-4-methyl-pentanoyl]amino]phenyl]methyl]triazol-4-yl]methylsulfamoyl]phenyl]carbamate]", "IC50": "4.2 ± 0.2"}, {"smiles": "CC(C)CC(C(=O)NO)C(=O)Nc1ccc(Cn2cc(CNS(=O)(=O)c3ccc(N)cc3)nn2)cc1", "note": "(stereo not shown) [Compound 210, N-[4-[[4-[[(4-aminophenyl)sulfonylamino]methyl]triazol-1-yl]methyl]phenyl]-2-(hydroxycarbamoyl)-4-methyl-pentanamide]", "IC50": "7.7 ± 0.2"}, {"smiles": "CC(C)CCC(C(=O)NO)C(=O)Nc1ccc(Cn2cc(CNS(=O)(=O)c3ccc(I)cc3)nn2)cc1", "note": "(stereo not shown) [Compound 215, 2-(hydroxycarbamoyl)-N-[4-[[4-[[(4-iodophenyl)sulfonylamino]methyl]triazol-1-yl]methyl]phenyl]-5-methyl-hexanamide]", "IC50": "48.5 ± 1.4"}, {"smiles": "CC(C(=O)NO)C(=O)Nc1ccc(Cn2cc(CNS(=O)(=O)c3ccc(I)cc3)nn2)cc1", "note": "(stereo not shown) [Compound 217, 3-(hydroxyamino)-N-[4-[[4-[[(4-iodophenyl)sulfonylamino]methyl]triazol-1-yl]methyl]phenyl]-2-methyl-3-oxo-propanamide]", "IC50": "278 ± 9.7"}]}]}
